Molecules are shown by their SMILES.

The target in the first assay is T1, IGF-1R (Homo sapiens, UniProt P08069).
T1 construct: purchased Upstate Co. 14-465
T1 sequence (P08069 959-1367 limits assumed): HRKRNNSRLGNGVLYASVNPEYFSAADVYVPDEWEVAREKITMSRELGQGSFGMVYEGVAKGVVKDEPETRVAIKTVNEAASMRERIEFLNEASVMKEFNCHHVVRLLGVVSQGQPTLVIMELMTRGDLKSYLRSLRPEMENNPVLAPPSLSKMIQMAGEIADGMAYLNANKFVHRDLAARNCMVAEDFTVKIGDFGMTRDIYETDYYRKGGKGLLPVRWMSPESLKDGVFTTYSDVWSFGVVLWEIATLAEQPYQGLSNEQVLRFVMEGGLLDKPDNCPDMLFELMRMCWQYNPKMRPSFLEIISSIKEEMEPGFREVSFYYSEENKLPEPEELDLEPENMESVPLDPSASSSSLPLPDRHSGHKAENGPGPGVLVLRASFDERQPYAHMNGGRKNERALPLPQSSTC
Nature of the assay: IGF-1R inhibitory activity (kinase reaction, time-resolved fluoroimmunoassay). The assay is classed as biochemical. The conditions noted are these: IGF-1R active recombinant enzyme, test compound 10 μmol/L. The protocol: The IGF-1R inhibitory activity was measured in the following manner.
As IGF-1R, active recombinant enzyme (Catalog No. 14-465) purchased from Upstate Co., was used. To 96 well plate (FIA-PLATE BLACK 96 well FALT-BOTTOM HIGH BINDING, Greiner Bio-one, Catalog No. 655077) coated with NeutroAvidin (Pierce, Catalog No. 31000), biotinylated polyglutamic acid-tyrosine peptide (Nihon Schering K.K., Catalog No. 61GT0BAA) was immobilized and then blocked with 0.25% gelatin to be used as a plate for measuring the kinase reaction. Separately was prepared a solution containing at final concentrations, IGF-1R (200 μg/L), Tris.HCl(pH 7.5)(20 mmol/L), Na3VO4(0.1 mmol/L), MgCl2(1 mmol/L), MnCl2(10 mmol/L), ATP(10 mmol/L), 2-mercaptoethanol (0.04%), BSA(Bovine Serum Albumin) (0.1%), DMSO(0.1%), test compound (10 μmol/L). The solution (each 50 μL) was added to the well of the plate for measuring the kinase reaction and then, enzyme reaction was performed for 30 minutes at 24° C. The plate was washed with TBS-T [10 mmol/L Tris Cl (pH 7.5), 150 mmol/L NaCl, 0.05% Tween 20 (Bio-Rad, Catalog No. 170-6531)] 4 times, then reacted with europium-labeled anti-phosphotyrosine antibody, further washed with TBS-T 4 times and then, measured with time-resolved fluoroimmunoassay (excitation wavelength 340 nm, measuring wavelength 615 nm). The value of a well to which the test compound had not been added was considered as 100% and that of a well where the enzyme and the test compound had not been added was considered as 0%. The relative activity (%) of the well which was added with enzyme and the test compound was measured and by subtracting the calculated value from 100, IGF-1R inhibitory activity of the test compound (%) was determined.
Turning to `C(=C\c1n[nH]c2ccccc12)/c1ccccc1NCc1ccccc1` [Compound 26, (E)-N-benzyl-N-{2-[2-(1H-indazol-3-yl)vinyl]phenyl}amine], the inhibition at 10 µM was 67.8%.
`O=C(Nc1ccccc1/C=C/c1n[nH]c2ccccc12)c1cc2ccccc2o1` [Compound 49, (E)-N-{2-[2-(1H-indazol-3-yl)vinyl]phenyl}benzofuran-2-carboxamide]: the inhibition at 10 µM was 103%.
On to `O=C(Nc1ccccc1/C=C/c1n[nH]c2ccccc12)c1cc2ccccc2[nH]1` [Compound 50, (E)-N-{2-[2-(1H-indazol-3-yl)vinyl]phenyl}-1H-indole-2-carboxamide], for which the inhibition at 10 µM turned out to be 98.5%.
The same measure, in the same setting: the same measure for `O=C(Nc1ccccc1/C=C/c1n[nH]c2ccccc12)c1ccc([N+](=O)[O-])s1` [Compound 51, (E)-N-{2-[2-(1H-indazol-3-yl)vinyl]phenyl}-5-nitrothiophene-2-carboxamide]: 100%.
Consider `Cc1oncc1C(=O)Nc1ccccc1/C=C/c1n[nH]c2ccccc12` [Compound 72, (E)-N-{2-[2-(1H-indazol-3-yl)vinyl]phenyl}-5-methylisoxazole-4-carboxamide], for which the inhibition at 10 µM was 82.7%.
On the same count and under the same terms, the same measure for `O=C(Nc1ccccc1/C=C/c1n[nH]c2ccccc12)c1ccccc1[N+](=O)[O-]` [Compound 74, (E)-N-{2-[2-(1H-indazol-3-yl)vinyl]phenyl}-2-nitrobenzamide]: 97.6%.
On to `CN(C)/C=N/c1ccccc1C=Cc1n[nH]c2ccccc12` [Compound 75, (E)-N-{2-[2-(1H-indazol-3-yl)vinyl]phenyl}-N,N-dimethylformamidine], for which the “inhibitory activity (%) at 10 μmol/L” value is recorded as 90.4%.
Take `O=C(Nc1ccccc1/C=C/c1n[nH]c2ccccc12)c1ccc(CO)cc1` [Compound 79, (E)-4-hydroxymethyl-N-{2-[2-(1H-indazol-3-yl)vinyl]phenyl}benzamide]: the inhibition at 10 µM was determined as 97.2%.
With `O=C(Nc1ccccc1/C=C/c1n[nH]c2ccccc12)c1ccc(CN2CCOCC2)cc1` [Compound 80, (E)-N-{2-[2-(1H-indazol-3-yl)vinyl]phenyl}-4-(morpholin-4-ylmethyl)benzamide], the inhibition at 10 µM was determined as 96.6%.
In the case of `COc1ccccc1/C=C/c1n[nH]c2ccccc12` [Compound 135, (E)-3-[2-(2-methoxyphenyl)vinyl]-1H-indazole], the inhibition at 10 µM came out at 86.6%.
On to `O=C(Nc1nc[nH]n1)c1ccccc1/C=C/c1n[nH]c2ccccc12` [Compound 139, (E)-2-[2-(1H-indazol-3-yl)vinyl]-N-(1H-[1,2,4]triazol-3-yl)benzamide], for which the inhibition at 10 µM came out at 93.9%.
With `Cc1csc(NC(=O)c2ccccc2/C=C/c2n[nH]c3ccccc23)n1` [Compound 143, (E)-2-[2-(1H-indazol-3-yl)vinyl]-N-(4-methylthiazol-2-yl)benzamide], the inhibition at 10 µM was found to be 94.9%.
The same measure, in the same setting: the same measure for `CSc1ccccc1/C=C/c1n[nH]c2ccccc12` [Compound 146, (E)-3-[2-(2-methylsulfanylphenyl)vinyl]-1H-indazole]: 78.3%; for `C(=C\c1cccc2nc(-c3cccs3)oc12)/c1n[nH]c2ccccc12` [Compound 149, (E)-7-[2-(1H-indazol-3-yl)vinyl]-2-(thiophen-2-yl)benzoxazole]: 70%; for `O=C1c2ccccc2C(=O)N1c1cccc(Cl)c1/C=C/c1n[nH]c2ccccc12` [Compound 154, (E)-2-{3-chloro-2-[2-(1H-indazol-3-yl)vinyl]phenyl}isoindole-1,3-dione]: 97.1%.

Staying with this assay, now noted: test compound 10 μmol/L.
Consider `O=C(Nc1ccccc1/C=C/c1n[nH]c2ccccc12)c1ccc([N+](=O)[O-])cc1Cl` [Compound 81, (E)-2-chloro-N-{2-[2-(1H-indazol-3-yl)vinyl]phenyl}-4-nitrobenzamide], for which the inhibition at 10 µM was found to be 60.7%.
On the same count and under the same terms, the same measure for `CSc1ccc(C(=O)Nc2ccccc2/C=C/c2n[nH]c3ccccc23)cc1` [Compound 82, (E)-N-{2-[2-(1H-indazol-3-yl)vinyl]phenyl}-4-methylsulphanylbenzamide]: 84.7%; for `COc1cccc(/C=C/c2n[nH]c3ccccc23)c1N` [Compound 93, (E)-2-[2-(1H-indazol-3-yl)vinyl]-6-methoxyphenylamine]: 70.6%.
As to `Cc1ccsc1C(=O)Nc1cc(C(=O)NCCO)ccc1/C=C/c1n[nH]c2ccccc12` [Compound 114, (E)-N-{5-[N-(2-hydroxyethyl)carbamoyl]-2-[2-(1H-indazol-3-yl)vinyl]phenyl}-3-methylthiophene-2-carboxamide], the inhibition at 10 µM was 92%.
For the compound `COCc1ccc(/C=C/c2n[nH]c3ccccc23)c(NC(=O)c2sccc2C)c1` [Compound 121, (E)-N-{2-[2-(1H-indazol-3-yl)vinyl]-5-(methoxymethyl)phenyl}-3-methylthiophene-2-carboxamide], the inhibition at 10 µM was determined as 98.6%.
Same read-out and setting: the same measure for `Cn1cccc1C(=O)Nc1cc(C(=O)N2CCOCC2)ccc1/C=C/c1n[nH]c2ccccc12` [Compound 123, (E)-N-{2-[2-(1H-indazol-3-yl)vinyl]-5-(morpholin-4-ylcarbonyl)phenyl}-1-methylpyrrole-2-carboxamide]: 95.9%.
In the case of `CCN(CC)C(=O)c1ccc(/C=C/c2n[nH]c3ccccc23)c(NC(=O)c2sccc2C)c1.Cl` [Compound 124, (E)-N-{5-(N,N-diethylcarbamoyl)-2-[2-(1H-indazol-3-yl)vinyl]phenyl}-3-methylthiophene-2-carboxamide hydrochloride], the “inhibitory activity (%) at 10 μmol/L” value was determined as 98.9%.
Same read-out and setting: the same measure for `Cc1ccsc1C(=O)Nc1cc(C(=O)N(C)C)ccc1/C=C/c1n[nH]c2ccccc12.Cl` [Compound 125, (E)-N-{5-(N,N-dimethylcarbamoyl)-2-[2-(1H-indazol-3-yl)vinyl]phenyl}-3-methylthiophene-2-carboxamide hydrochloride]: 100.9%.
For `Cc1ccsc1C(=O)Nc1cc(C(=O)N2CCN(C)CC2)ccc1/C=C/c1n[nH]c2ccccc12` [Compound 126, (E)-N-{2-[2-(1H-indazol-3-yl)vinyl]-5-(4-methylpiperazin-1-ylcarbonyl)phenyl}-3-methylthiophene-2-carboxamide], the inhibition at 10 µM turned out to be 98.8%.
With `COC1CCN(C(=O)c2ccc(/C=C/c3n[nH]c4ccccc34)c(NC(=O)c3sccc3C)c2)CC1.Cl` [Compound 127, (E)-N-{2-[2-(1H-indazol-3-yl)vinyl]-5-(4-methoxypiperidin-1-ylcarbonyl)phenyl}-3-methylthiophene-2-carboxamide hydrochloride], the “inhibitory activity (%) at 10 μmol/L” value is 101.9%.
Same read-out and setting: the same measure for `Cc1ccsc1C(=O)Nc1cc(C(=O)N2CCN(C)CC2)ccc1/C=C/c1n[nH]c2ccccc12.Cl` [Compound 128, (E)-N-{2-[2-(1H-indazol-3-yl)vinyl]-5-(4-methylpiperazine-1-ylcarbonyl)phenyl}-3-methylthiophene-2-carboxamide hydrochloride]: 98.8%; for `Cc1ccsc1C(=O)Nc1cc(C(=O)N2CCC3(CC2)OCCO3)ccc1/C=C/c1n[nH]c2ccccc12.Cl` [Compound 129, (E)-N-{5-(1,4-dioxa-8-azaspiro[4,5]decane-8-carbonyl)-2-[2-(1H-indazol-3-yl)vinyl]phenyl}-3-methylthiophene-2-carboxamide hydrochloride]: 99.9%.

The values above are taken from US7605272B2, “IGF-1R inhibitor” (Kyowa Hakko Kirin Co., Ltd., priority 2005, dated 2009).
